Test results from paper PMC5612938, “A multiple biomarker assay for quality assessment of botanical drugs using a versatile microfluidic chip” (Scientific Reports, 2017).

Legend:
ACE (from rabbit lung) = target: T1, ACE (from rabbit lung) (Oryctolagus cuniculus, UniProt P12822); test: on-chip affinity screening, binding degree by LC-MS peak area vs protein-free control (ACE); settings: for ACE; [(As − Ac)/As] × 100, sample vs protein-free control, EIC peak area
T1 construct: ACE (from rabbit lung); purchased Sigma-Aldrich; host or cells: rabbit lung
T1 sequence (P12822 34-1310): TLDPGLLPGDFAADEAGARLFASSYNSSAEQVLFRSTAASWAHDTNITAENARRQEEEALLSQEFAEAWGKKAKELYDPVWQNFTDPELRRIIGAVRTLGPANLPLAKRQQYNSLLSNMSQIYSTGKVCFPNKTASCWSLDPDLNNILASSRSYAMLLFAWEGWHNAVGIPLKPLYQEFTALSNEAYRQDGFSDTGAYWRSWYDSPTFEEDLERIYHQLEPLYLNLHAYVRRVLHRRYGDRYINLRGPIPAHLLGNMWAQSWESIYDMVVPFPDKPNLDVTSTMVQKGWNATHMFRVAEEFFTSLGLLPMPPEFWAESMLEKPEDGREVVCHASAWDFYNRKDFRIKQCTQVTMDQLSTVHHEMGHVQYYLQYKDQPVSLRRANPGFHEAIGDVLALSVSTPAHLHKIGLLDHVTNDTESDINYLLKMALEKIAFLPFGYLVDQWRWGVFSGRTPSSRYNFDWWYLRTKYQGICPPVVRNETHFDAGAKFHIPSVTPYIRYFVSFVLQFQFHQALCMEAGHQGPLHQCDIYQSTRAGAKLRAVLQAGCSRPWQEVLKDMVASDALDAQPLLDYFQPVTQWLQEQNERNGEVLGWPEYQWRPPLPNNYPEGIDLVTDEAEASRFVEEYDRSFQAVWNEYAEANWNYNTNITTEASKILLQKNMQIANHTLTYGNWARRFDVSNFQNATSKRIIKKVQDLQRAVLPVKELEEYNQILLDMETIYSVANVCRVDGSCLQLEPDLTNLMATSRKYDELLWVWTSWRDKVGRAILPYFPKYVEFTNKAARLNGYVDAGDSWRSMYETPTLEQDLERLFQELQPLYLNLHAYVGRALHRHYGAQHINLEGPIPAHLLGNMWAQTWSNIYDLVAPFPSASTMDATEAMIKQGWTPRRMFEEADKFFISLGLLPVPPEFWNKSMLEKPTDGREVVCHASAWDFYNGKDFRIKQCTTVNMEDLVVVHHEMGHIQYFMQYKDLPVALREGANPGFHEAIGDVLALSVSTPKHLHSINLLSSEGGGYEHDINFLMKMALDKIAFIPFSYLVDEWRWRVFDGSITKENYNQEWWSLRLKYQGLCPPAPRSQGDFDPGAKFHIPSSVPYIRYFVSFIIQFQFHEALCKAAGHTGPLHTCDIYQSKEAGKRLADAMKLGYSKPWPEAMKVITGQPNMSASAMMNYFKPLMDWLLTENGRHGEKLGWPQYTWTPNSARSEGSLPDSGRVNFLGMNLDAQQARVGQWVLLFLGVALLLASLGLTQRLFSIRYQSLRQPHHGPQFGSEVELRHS
Source text: (§1) In addition to quality assessment, the microfluidic chip can also function as “affinity chromatography” to identify bioactive constituents from botanical drugs in a convenient and efficient manner. After the bioassay, the bound phytochemicals were dissociated from the enzymes and accurately identified by LC-MS. The material used for the chambers in microfluidic system, polydimethylsiloxane (PDMS), is apt to adsorb small molecules nonspecifically, thus a protein-free control was applied to reflect the degree of nonspecific binding of compounds to the chip. Peak areas were obtained from the extracted ion chromatography (EIC) in an ion-trap mass spectrometry (IT-MS), and binding degree (binding degree % = [(As − Ac)/As] × 100, where As and Ac were the peak area in the sample and control, respectively) was calculated to indicate binding specificity. […] All these peaks were unambiguously confirmed via comparisons with chemical standards in terms of retention time and mass spectra (Table 2), and five thrombin inhibitors (danshensu, salvianolic acid B, salvianolic acid C, rosmarinic acid and ginsenoside Rg1) and six ACE inhibitors (astragaloside IV, ononin, formononetin, calycosin, danshensu and salvianolic acid B) were preliminarily identified. […] Enzyme inhibition assays of these hit compounds were then performed to verify the screening results. […] Compounds showing an inhibition rate over 70% were subjected to IC50 measurement.
(§2) MBs (10 mg/mL) were diluted 10 times in PB or Tris-HCl buffer, and 10 μL of the diluted MBs (1 mg/mL) were injected into one channel of the chip using a syringe infusion pump (Harvard Apparatus, USA) and retained by an external magnet. Then, 10 μL of thrombin or ACE solution was added and incubated with MBs for two hours at room temperature to form enzyme-MB complexes. The magnet was manually controlled to move MBs back and forth to enhance the ratio of reaction. Subsequently, MBs were washed twice in assay buffer and magnetically transferred to the other channel through the fluidic bridge, whose opening and closing was controlled by a pneumatic valve. Next, 10 μL of sample solutions of tested drug and 10 μL of enzymatic substrate were sequentially infused to the channel by the pump and incubated with the enzyme. When the enzymatic reaction was finished, the MBs were retained in the channel, and air was injected into the channel from the inlet using a syringe to push all the reacted solution to a 384-well plate. The absorbance of the solution was then monitored at 405 nm (for S-2238) or 340 nm (for FAPGG) using an Infinite F200 spectrophotometer (Tecan, Männedorf, Switzerland). Moreover, after detection, the reaction channel was washed three times by assay buffer to remove unbound constituents. 20 μL of 80% aqueous methanol was then injected and incubated with MBs for one hour to dissociate the bound constituents. The resulting solutions of replicates were combined, evaporated by a centrifugal evaporator, reconstituted in 80% aqueous methanol, centrifuged at 10,000 rpm for 10 min, and analyzed by LC-MS for chemical identification.
An Agilent 1100 HPLC system (Agilent Technologies, Waldbronn, Germany) coupled with an LCQ Deca XP^plus IT-MS (Thermo Finnigan, San Jose, CA, USA) equipped with an electrospray ionization (ESI) interface was employed for structure elucidation of the bounded constituents. The analysis was performed in negative ionization mode under following operation parameters: scan range m/z 100–1500; capillary voltage −15 V; source voltage −3 kV; capillary temperature 350 °C; sheath gas (N2) 60 arb; auxiliary gas (N2) 20 arb.

[1] = target: T2, Thrombin (from human plasma) (Homo sapiens, UniProt P00734); test: on-chip affinity screening, binding degree by LC-MS peak area vs protein-free control (thrombin); settings: for thrombin; [(As − Ac)/As] × 100, sample vs protein-free control, EIC peak area
T2 construct: Thrombin (from human plasma); purchased Sigma-Aldrich; host or cells: human plasma
Source text: as §1, §2
An Agilent 1100 HPLC system (Agilent Technologies, Waldbronn, Germany) coupled with an LCQ Deca XP^plus IT-MS (Thermo Finnigan, San Jose, CA, USA) equipped with an electrospray ionization (ESI) interface was employed for structure elucidation of the bounded constituents. […]

Row | SMILES | Binding degree (%) (ACE (from rabbit lung)) | Binding degree (%) [1] [%]
1 | O=C(O)C(O)Cc1ccc(O)c(O)c1 (stereo not shown) [Danshensu] | 57.2 | 50.9
2 | O=C(/C=C/c1ccc(O)c2c1[C@H](C(=O)O[C@H](Cc1ccc(O)c(O)c1)C(=O)O)[C@@H](c1ccc(O)c(O)c1)O2)O[C@H](Cc1ccc(O)c(O)c1)C(=O)O [Salvianolic acid B] | 41.3 | 34.9
